Series [1] relates to rabbit blood platelets (platelet rich plasma), collagen-induced aggregation. Briefly: inhibition of platelet aggregation in rabbit platelet rich plasma (in vitro), induced by collagen. Type of series: cell-based. The note with it: Oryctolagus cuniculus, Platelet, rabbit PRP, read-out: percentage of inhibition, collagen; for inhibition at 10 µg/mL: 10 μg/ml; for inhibition at 30 µg/mL: 30 μg/ml; for inhibition at 100 µg/mL: 100 μg/ml; for inhibition at 3 µg/mL: 3 μg/ml; for inhibition at 1 µg/mL: 1 μg/ml. The method, then: (§1) In this example, the inhibition of platelet aggregation in rabbit platelet rich plasma (in vitro) is tested.
(§2) In this test, 9 vol. of blood is sampled from the carotid artery of rabbits (2 to 2.5 Kg) and placed in a silicon-coated flask containing 1 vol. of 3.8% sodium citrate. The thus obtained blood is centrifuged at 1,000 rpm for 15 minutes to obtain platelet rich plasma (referred to as "PRP" hereinafter). The aggregation of blood platelets is observed using an aggregometer (made by Bryston Co.) and the degree of aggregation after the addition of aggregation promoting substances is measured by nephelometry, i.e., through increase in light transmission.
(§3) The PRP (0.9 ml) is placed in a silicon-coated cuvett of the aggregometer. Then, 0.05 ml of physiological saline solution containing various concentrations of test reagents or control reagents is added and the mixture is allowed to stand for one minute. Compounds promoting aggregation are then added and the absorbancy of the solution is measured and the percent inhibition of aggregation is calculated according to the following equation: [formula] C: Transmittancy showing the maximum percent aggregation by physiological saline solution
(§4) D: Transmittancy showing the maximum percent aggregation by sample
(§5) Test for the inhibition of platelet aggregation induced by ADP, collagen and thrombin.

The subject of series [2] is human platelet rich plasma, ADP-induced aggregation. The series is described as follows: inhibition of platelet aggregation in human platelet rich plasma, induced by ADP. It counts as cell-based. The conditions noted are these: human PRP, read-out: percentage inhibition, ADP; for inhibition at 30 µg/mL: 30 μg/ml; for inhibition at 100 µg/mL: 100 μg/ml; for inhibition at 10 µg/mL: 10 μg/ml. The method, then: as §2, §3, §4
(§6) In this example, the same procedures are repeated as in Example 10 except that human platelet rich plasma is used in place of rabbit platelet rich plasma.

Series [3] has as its system rabbit blood platelets (platelet rich plasma), ADP-induced aggregation. The series is described as follows: inhibition of platelet aggregation in rabbit platelet rich plasma (in vitro), induced by ADP. It counts as cell-based. The note with it: Oryctolagus cuniculus, Platelet, rabbit PRP, ADP 10^-5 M, read-out: percentage of inhibition, ADP; for inhibition at 100 µg/mL: 100 μg/ml; for inhibition at 3 µg/mL: 3 μg/ml; for inhibition at 10 µg/mL: 10 μg/ml; for inhibition at 30 µg/mL: 30 μg/ml. The method, then:
as §1, §2, §3, §4, §5

The nature of series [4]: acute toxicity, Behrens-Karber's method. The conditions noted are these: in vivo; mouse, oral. Type of series: in vivo. The method, then:
In this example, the acute toxicity of compounds of the invention is determined by Behrens-Karber's method using, 5 male dd-strain for each group weighing 20±1 g. A 0.3% CMC suspension of the test compound (concentration of the test compound: 100 mg/ml) is then orally administered to each mouse.

For series [5], the system named is human platelet rich plasma, collagen-induced aggregation. The series is described as follows: inhibition of platelet aggregation in human platelet rich plasma, induced by collagen. Type of series: cell-based. The note with it: human PRP, read-out: percentage inhibition, collagen; for inhibition at 10 µg/mL: 10 μg/ml; for inhibition at 30 µg/mL: 30 μg/ml; for inhibition at 100 µg/mL: 100 μg/ml. The method, then: as §2, §3, §4, §6

Structures are written as SMILES.

`COCCNC(=O)c1ccccc1SSc1ccccc1C(=O)NCCOC` [Compound XVIII, 2,2'-dithiobis(N-2-methyloxyethylbenzamide)]: the inhibition (in general, the drop in the measured response relative to a control, in per cent) at 10 µg/mL in series [1] was determined as 40%; in series [5] it was 10%. Moreover, the figures for the inhibition at 30 µg/mL in series [1], in series [2] and in series [5] were 100%, 20% and 45%, respectively. Moreover, the inhibition at 100 µg/mL in series [1] was determined as 100%; in series [2], 65%; in series [3] it was 75%; in series [5], 100%. Besides, in series [4], the LD50 (as a rule, the dose at which mortality reaches 50%) is ≥ 1000 mg/kg.

For the molecule `O=C(NCCCN1CCOCC1)c1ccccc1SSc1ccccc1C(=O)NCCCN1CCOCC1` [Compound XL, 2,2'-dithiobis(N-3-morpholinopropylbenzamide)], in series [1], the inhibition at 3 µg/mL turned out to be 21%, the inhibition at 10 µg/mL is 98%, the inhibition at 30 µg/mL was determined as 100% and the inhibition at 100 µg/mL is 100%. In series [2], the inhibition at 10 µg/mL is 65%, the inhibition at 30 µg/mL turned out to be 85% and the inhibition at 100 µg/mL is 100%. For the same molecule, in series [3], the inhibition at 3 µg/mL was determined as 26%, the inhibition at 10 µg/mL was found to be 69% and the inhibition at 30 µg/mL stood at 100%. Besides, the median lethal dose (LD50) in series [4] was ≥ 1000 mg/kg. In addition, in series [5], the inhibition at 10 µg/mL is 40%, the inhibition at 30 µg/mL was 100% and the inhibition at 100 µg/mL worked out at 100%.

`CCCCCCCCCCCC(=O)OCCNC(=O)c1ccccc1SSc1ccccc1C(=O)NCCOC(=O)CCCCCCCCCCC` [Compound XIX, 2,2'-dithiobis(N-2-dodecanoyloxyethylbenzamide)]: the inhibition at 30 µg/mL in series [1] was determined as 54%; in series [2], 5%; in series [3], 12%; in series [5], 16%. Moreover, the inhibition at 100 µg/mL in series [1] came to 100%; in series [2], 35%; in series [3], 72%; in series [5], 46%. Also, in series [4], the LD50 is ≥ 1000 mg/kg.

As to `O=C(c1ccccc1SSc1ccccc1C(=O)N1CCOCC1)N1CCOCC1` [Compound XXVII, 2,2'-dithiobis(benzmorpholide)], in series [1], the inhibition at 1 µg/mL was 40%, the inhibition at 3 µg/mL came out at 59%, the inhibition at 10 µg/mL came to 100% and the inhibition at 30 µg/mL turned out to be 100%. For the same molecule, in series [2], the inhibition at 30 µg/mL was determined as 5% and the inhibition at 100 µg/mL turned out to be 45%. For the same molecule, in series [3], the inhibition at 3 µg/mL is 40%, the inhibition at 10 µg/mL was 60% and the inhibition at 30 µg/mL stood at 100%. The LD50 in series [4] is ≥ 1000 mg/kg. Further, in series [5], the inhibition at 10 µg/mL is 0%, the inhibition at 30 µg/mL turned out to be 35% and the inhibition at 100 µg/mL is 100%.

With `O=C(NCCO)c1cc(Cl)ccc1SSc1ccc(Cl)cc1C(=O)NCCO` [Compound XXXI, 2,2'-dithiobis(5-chloro-N-2-hydroxyethyl)benzamide], in series [1], the inhibition at 1 µg/mL turned out to be 26%, the inhibition at 3 µg/mL is 100%, the inhibition at 10 µg/mL turned out to be 100% and the inhibition at 30 µg/mL is 100%. In series [1], the inhibition at 100 µg/mL worked out at 100%. Further, in series [2], the inhibition at 10 µg/mL was found to be 10%, the inhibition at 30 µg/mL was determined as 50% and the inhibition at 100 µg/mL amounted to 88%. Besides, in series [3], the inhibition at 3 µg/mL worked out at 0%, the inhibition at 10 µg/mL stood at 43%, the inhibition at 30 µg/mL was found to be 80% and the inhibition at 100 µg/mL came out at 100%. Also, the LD50 in series [4] was ≥ 1000 mg/kg. Besides, in series [5], the inhibition at 10 µg/mL came to 12%, the inhibition at 30 µg/mL stood at 60% and the inhibition at 100 µg/mL worked out at 100%.

As for `O=C(NCCNCCO)c1ccccc1SSc1ccccc1C(=O)NCCNCCO` [Compound XXV, 2,2'-dithiobis[N-2-(2-hydroxyethylamino)-ethylbenzamide]], the inhibition at 30 µg/mL amounted to 42% in series [1], 10% in series [3] and 4% in series [5]. The inhibition at 100 µg/mL is 10% in series [2] and 25% in series [5]. Moreover, in series [4], the LD50 was ≥ 1000 mg/kg.

The values above are taken from patent publication US4705805A, “Antithrombotic agent” (priority 1978, dated 1987).
